According to US6858620B2, “Condensed pyridoindole derivatives” (Lilly ICOS, LLC, priority 2000, dated 2005):

Legend:
human recombinant PDE5 = biological target: T1, human recombinant PDE5 (Homo sapiens, UniProt O76074); test: Inhibitory effect on cGMP-PDE (PDE5 IC50, one-step assay); type: biochemical; details: in vitro, 0.15 μM 8-[H3]-cGMP, 30 minutes incubation
T1 construct: host or cells: Saccharomyces cerevisiae strain BJ2-54 (ATCC 74465), described as an exemplary method
Method: The compounds of structural formula (I) were tested for an ability to inhibit PDE5. The ability of a compound to inhibit PDE5 activity is related to the IC50 value for the compound, i.e., the concentration of inhibitor required for 50% inhibition of enzyme activity. The IC50 value for compounds of structural formula (I) were determined using recombinant human PDE5.
cGMP-PDE activity of compounds of the present invention was measured using a one-step assay adapted from Wells et al., Biochim. Biophys. Acta, 384, 430 (1975). The reaction medium contained 50 mM Tris-HCl, pH 7.5, 5 mM magnesium acetate, 250 μg/ml 5′-Nucleotidase, 1 mM EGTA, and 0.15 μM 8-[H^3]-cGMP. Unless otherwise indicated, the enzyme used was a human recombinant PDE5 (ICOS Corp., Bothell, Wash.).
Compounds of the invention were dissolved in DMSO finally present at 2% in the assay.

| IC50 (human recombinant PDE5) | melting point | Compound |
| --- | --- | --- |
| 53 nM | – | O=C1OC(=S)N2[C@H](c3ccc4c(c3)OCO4)c3[nH]c4ccccc4c3C[C@H]12 [Example 3, (3aR,10R)-10-Benzo[1,3]dioxol-5-yl-1-thioxo3a,4,9,10-tetrahydro-2-oxa-9,10a-diaza-cyclopenta[β]fluoren-3-one] |
| 205 nM | 197 to 202 °C | O=C1OC(=O)N2[C@H](c3ccc4c(c3)OCO4)c3[nH]c4ccccc4c3C[C@H]12 [Example 1, (3aR,10R)-(+)-10-Benzo[1,3]dioxol-5-yl-3a,4,9,10-tetrahydro-2-oxa-9,10a-diaza-cyclopenta[β]fluorene-1,3-dione] |
| 200 nM | – | O=C1CC(=O)N2C1Cc1c([nH]c3ccccc13)C2c1ccc2c(c1)OCO2 (centres unmarked) [Example 9, 5-Benzo[1,3]dioxol-5-yl-5,6,11,11a-tetrahydroindolizino[6,7-b]indole-1,3-dione] |
| 390 nM | – | O=C1CCN2[C@H](c3ccc4c(c3)OCO4)c3[nH]c4ccccc4c3C[C@H]12 (racemic) [Example 14, (+−, trans)-5-Benzo[1,3]dioxol-5-yl,2,3,5,6,11,11a-hexahydro-indolizino[6,7-b]indol-1-one] |
| 12 nM | 234 to 236 °C | CN1C(=O)[C@@H]2Cc3c([nH]c4ccccc34)[C@@H](c3ccc4c(c3)OCO4)N2C1=S [Example 6, (3aS,10R)-10-Benzo(1,3)dioxol-5-yl-2-methyl-1-thioxo-1,2,3a,4,9,10-hexahydro-2,9,10a-triazacyclopenta[b]fluoren-3-one] |

The remaining lines, values behind:

| Compound | IC50 (human recombinant PDE5) | melting point |
| --- | --- | --- |
| CN1C[C@@H]2Cc3c([nH]c4ccccc34)[C@H](c3ccc4c(c3)OCO4)N2C1=O (racemic) [Example 11, (+−, cis)-10-Benzo[1,3]dioxol-5-yl-2-methyl-2,3,3a,4,9,10-hexahydro-2,9,10a-triazacyclopenta[b]fluoren-1-one] | 60 nM | – |
| CCCCN1C(=O)[C@@H]2Cc3c([nH]c4ccccc34)[C@H](c3ccc(OC)cc3)N2C1=S (racemic) [Example 7, (+−, trans)-2-Butyl-10-(4-methoxyphenyl)-1-thioxo-1,2,3a,4,9,10-hexahydro-2,9,10a-triazacyclopenta-[b]fluoren-3-one] | 20 nM | – |
| O=C1OCC2Cc3c([nH]c4ccccc34)C(c3ccc4c(c3)OCO4)N12 (centres unmarked) [Example 13, 10-Benzo[1,3]dioxol-5-yl-3a,4,9,10-tetrahydro-3H-2-oxa-9,10a-diazacyclopenta[b]fluoren-1-one] | 70 nM | – |
| CN1C(=O)N2[C@H](c3ccc4c(c3)OCO4)c3[nH]c4ccccc4c3C[C@H]2C1=S [Example 5, (3aS,10R)-10-Benzo(1,3)dioxol-5-yl-2-methyl-3-thioxo-2,3,3a,4,9,10-hexahydro-2,9,10a-triazacyclopenta[b]fluoren-1-one] | 12 nM | 168 to 174 °C |
| O=S1OCC2Cc3c([nH]c4ccccc34)C(c3ccc4c(c3)OCO4)N21 (centres unmarked) [Example 15, 10-Benzo[1,3]dioxol-5-yl-3a,4,9,10-tetrahydro-3H-2-oxa-1-thia-9,10a-diazacyclopenta[b]fluorene-1-oxide] | 20 nM | – |
| COc1ccc([C@@H]2c3[nH]c4ccccc4c3C[C@H]3C(=O)N(Cc4ccccc4)CN23)cc1 (racemic) [Example 12, (+−, cis)-2-Benzyl-10-(4-methoxyphenyl)-1,2,3a,4,9,10-hexahydro-2,9,10a-triazacyclopenta[b]fluoren-3-one] | 60 nM | – |
